Experimental data published in patent US9717728B2, “Pharmaceutical combination comprising a B-Raf inhibitor and a histone deacetylase inhibitor and their use in the treatment of proliferative diseases” (NOVARTIS AG, priority 2012, dated 2017).
Entries after “also recorded” stand apart in the source; their conditions may differ.

Experiments:
Mel-P3-Pre [1] = assay: Cell cycle staining and sub-G1 analysis of dead cells (flow cytometry); assay type: cell-based, human; settings: for CELL CYCLE AVG G1 / CELL CYCLE AVG G2/M / CELL CYCLE AVG S / sub-G1 %: Mel-P3-Pre, 48 hours
Excerpt: (§1) Cell lines: Mel-PX-Pre and Mel-PX-post represent cell lines derived from patient-X pre- and post-treatment with vemurafenib.

Mel-P3-Post [2] = assay: as above; assay type: cell-based, human; settings: for CELL CYCLE AVG G1 / CELL CYCLE AVG G2/M / CELL CYCLE AVG S / sub-G1 %: Mel-P3-Post, 48 hours
Excerpt: as §1

Mel-P3-Post [3] = assay: z-VAD-fmk-FITC staining for caspase positive cells; assay type: cell-based, human; settings: 48 hours
Excerpt: as §1

Mel-P3-Pre [4] = assay: Annexin-V staining per quadrant (flow cytometry); assay type: cell-based, human; settings: 48 hours
Excerpt: as §1

Mel-P3-Post [5] = assay: Annexin-V staining per quadrant (flow cytometry); assay type: cell-based, human; settings: 48 hours
Excerpt: as §1

Mel-P4-Post = assay: Sub-G1 analysis of dead cells; assay type: cell-based, human; settings: 48 hours
Excerpt: as §1

Mel-P1-Pre = assay: Sub-G1 analysis of dead cells; assay type: cell-based, human; settings: 48 hours
Excerpt: as §1

Mel-P1-Post = assay: Sub-G1 analysis of dead cells; assay type: cell-based, human; settings: 48 hours
Excerpt: as §1

Mel-P4-Pre = assay: Sub-G1 analysis of dead cells; assay type: cell-based, human; settings: 48 hours
Excerpt: as §1

Mel-P3-Post [6] = assay: JC1 staining for mitochondrial depolarisation; assay type: cell-based, human
Excerpt: as §1

Melanocytes (NHEM) = assay: Cell cycle staining and sub-G1 analysis of dead cells (flow cytometry); assay type: cell-based; settings: for CELL CYCLE AVG G1 / CELL CYCLE AVG G2/M / CELL CYCLE AVG S / sub-G1 %: Melanocytes (NHEM), 48 hours
melanoma lines = assay: Cell cycle arrest and apoptosis in matched pre and post melanoma cell lines; assay type: cell-based, human; settings: B-Raf-mutant melanoma, listed as B-Raf inhibitor of Formula (I)
Method: The B-Raf inhibitor of Formula (I) was tested on the matched pre and post cell lines established from patients before treatment and after progression on vemurafenib treatment. […] Combining panobinostat with the B-Raf inhibitor of Formula (I), caused a synergistic increase in apoptosis in melanoma lines. The increase in apoptosis was also observed in the “post” cell lines which had previously acquired resistance to the B-Raf inhibitor, vemurafenib.

COC(=O)N[C@@H](C)CNc1nccc(-c2cn(C(C)C)nc2-c2cc(Cl)cc(NS(C)(=O)=O)c2F)n1 [B-Raf]
CELL CYCLE AVG G1 (Mel-P3-Pre [1]; B-Raf 0.1 uM, HDAI 0 nM): 85
CELL CYCLE AVG G2/M (Mel-P3-Pre [1]; B-Raf 0.1 uM, HDAI 0 nM): 6
CELL CYCLE AVG S (Mel-P3-Pre [1]; B-Raf 0.1 uM, HDAI 0 nM): 10
sub-G1 % (Mel-P3-Pre [1]; B-Raf 0.1 uM, HDAI 0 nM): 10%
CELL CYCLE AVG G1 (Mel-P3-Pre [1]; B-Raf 1 uM, HDAI 0 nM): 90
CELL CYCLE AVG G2/M (Mel-P3-Pre [1]; B-Raf 1 uM, HDAI 0 nM): 6
CELL CYCLE AVG S (Mel-P3-Pre [1]; B-Raf 1 uM, HDAI 0 nM): 5
sub-G1 % (Mel-P3-Pre [1]; B-Raf 1 uM, HDAI 0 nM): 12%
CELL CYCLE AVG G1 (Mel-P3-Pre [1]; B-Raf 10 uM, HDAI 0 nM): 92
CELL CYCLE AVG G2/M (Mel-P3-Pre [1]; B-Raf 10 uM, HDAI 0 nM): 4
CELL CYCLE AVG S (Mel-P3-Pre [1]; B-Raf 10 uM, HDAI 0 nM): 4
sub-G1 % (Mel-P3-Pre [1]; B-Raf 10 uM, HDAI 0 nM): 20%
G1 arrest (in words) (Mel-P3-Pre [1]; Mel-P3 “pre” cell line): potent G1 arrest
apoptosis (in words) (Mel-P3-Pre [1]; Mel-P3 “pre” cell line): low level apoptosis
CELL CYCLE AVG G1 (Mel-P3-Post [2]; B-Raf 0.1 uM, HDAI 0 nM): 65
CELL CYCLE AVG G2/M (Mel-P3-Post [2]; B-Raf 0.1 uM, HDAI 0 nM): 12
CELL CYCLE AVG S (Mel-P3-Post [2]; B-Raf 0.1 uM, HDAI 0 nM): 23
sub-G1 % (Mel-P3-Post [2]; B-Raf 0.1 uM, HDAI 0 nM): 2%
CELL CYCLE AVG G1 (Mel-P3-Post [2]; B-Raf 1 uM, HDAI 0 nM): 68
CELL CYCLE AVG G2/M (Mel-P3-Post [2]; B-Raf 1 uM, HDAI 0 nM): 10
CELL CYCLE AVG S (Mel-P3-Post [2]; B-Raf 1 uM, HDAI 0 nM): 22
sub-G1 % (Mel-P3-Post [2]; B-Raf 1 uM, HDAI 0 nM): 2%
CELL CYCLE AVG G1 (Mel-P3-Post [2]; B-Raf 10 uM, HDAI 0 nM): 72
CELL CYCLE AVG G2/M (Mel-P3-Post [2]; B-Raf 10 uM, HDAI 0 nM): 7
CELL CYCLE AVG S (Mel-P3-Post [2]; B-Raf 10 uM, HDAI 0 nM): 21
sub-G1 % (Mel-P3-Post [2]; B-Raf 10 uM, HDAI 0 nM): 4%
G1 arrest (in words) (Mel-P3-Post [2]; Mel-P3 “post” cell line): weaker G1 arrest
apoptosis (in words) (Mel-P3-Post [2]; Mel-P3 “post” cell line): no apoptosis
z-VAD-fmk positive (Mel-P3-Post [3]; B-Raf 5 uM, HDAI 0 nM): 14
Annexin Staining per quadrant. Lower Left* (“healthy” cells) (Mel-P3-Pre [4]; B-Raf 0.1 uM, HDAI 0 nM): 88
Annexin Staining per quadrant. Lower Right (Mel-P3-Pre [4]; B-Raf 0.1 uM, HDAI 0 nM): 7
Annexin Staining per quadrant. Upper Left (Mel-P3-Pre [4]; B-Raf 0.1 uM, HDAI 0 nM): 0
Annexin Staining per quadrant. Upper Right (Mel-P3-Pre [4]; B-Raf 0.1 uM, HDAI 0 nM): 4
Annexin Staining per quadrant. Lower Left* (“healthy” cells) (Mel-P3-Pre [4]; B-Raf 1 uM, HDAI 0 nM): 85
Annexin Staining per quadrant. Lower Right (Mel-P3-Pre [4]; B-Raf 1 uM, HDAI 0 nM): 8
Annexin Staining per quadrant. Upper Left (Mel-P3-Pre [4]; B-Raf 1 uM, HDAI 0 nM): 0
Annexin Staining per quadrant. Upper Right (Mel-P3-Pre [4]; B-Raf 1 uM, HDAI 0 nM): 6
Annexin Staining per quadrant. Lower Left* (“healthy” cells) (Mel-P3-Pre [4]; B-Raf 10 uM, HDAI 0 nM): 73
Annexin Staining per quadrant. Lower Right (Mel-P3-Pre [4]; B-Raf 10 uM, HDAI 0 nM): 13
Annexin Staining per quadrant. Upper Left (Mel-P3-Pre [4]; B-Raf 10 uM, HDAI 0 nM): 1
Annexin Staining per quadrant. Upper Right (Mel-P3-Pre [4]; B-Raf 10 uM, HDAI 0 nM): 13
Annexin Staining per quadrant. Lower Left* (“healthy” cells) (Mel-P3-Post [5]; B-Raf 0.1 uM, HDAI 0 nM): 91
Annexin Staining per quadrant. Lower Right (Mel-P3-Post [5]; B-Raf 0.1 uM, HDAI 0 nM): 5
Annexin Staining per quadrant. Upper Left (Mel-P3-Post [5]; B-Raf 0.1 uM, HDAI 0 nM): 0
Annexin Staining per quadrant. Upper Right (Mel-P3-Post [5]; B-Raf 0.1 uM, HDAI 0 nM): 4
Annexin Staining per quadrant. Lower Left* (“healthy” cells) (Mel-P3-Post [5]; B-Raf 1 uM, HDAI 0 nM): 91
Annexin Staining per quadrant. Lower Right (Mel-P3-Post [5]; B-Raf 1 uM, HDAI 0 nM): 5
Annexin Staining per quadrant. Upper Left (Mel-P3-Post [5]; B-Raf 1 uM, HDAI 0 nM): 0
Annexin Staining per quadrant. Upper Right (Mel-P3-Post [5]; B-Raf 1 uM, HDAI 0 nM): 4
Annexin Staining per quadrant. Lower Left* (“healthy” cells) (Mel-P3-Post [5]; B-Raf 10 uM, HDAI 0 nM): 89
Annexin Staining per quadrant. Lower Right (Mel-P3-Post [5]; B-Raf 10 uM, HDAI 0 nM): 5
Annexin Staining per quadrant. Upper Left (Mel-P3-Post [5]; B-Raf 10 uM, HDAI 0 nM): 0
Annexin Staining per quadrant. Upper Right (Mel-P3-Post [5]; B-Raf 10 uM, HDAI 0 nM): 6
sub-G1 % (Mel-P4-Post; B-Raf 10 uM, HDAI 0 nM): 54%
sub-G1 % (Mel-P1-Pre; B-Raf 10 uM, HDAI 0 nM): 10%
sub-G1 % (Mel-P1-Post; B-Raf 10 uM, HDAI 0 nM): 10%
sub-G1 % (Mel-P4-Pre; B-Raf 10 uM, HDAI 0 nM): 58%
Depolarised mitochondria (Mel-P3-Post [6]; B-Raf 5 uM, HDAI 0, 48 hours): 88
cell death of melanocytes (in words) (Melanocytes (NHEM)): did not die
CELL CYCLE AVG G1 (Melanocytes (NHEM); B-Raf 10 uM, HDAI 0 nM): 98
CELL CYCLE AVG G2/M (Melanocytes (NHEM); B-Raf 10 uM, HDAI 0 nM): 1
CELL CYCLE AVG S (Melanocytes (NHEM); B-Raf 10 uM, HDAI 0 nM): 1
sub-G1 % (Melanocytes (NHEM); B-Raf 10 uM, HDAI 0 nM): 3%
cell cycle arrest and apoptosis (in words) (melanoma lines): potent cell cycle inhibition and cell line-dependent apoptosis; also recorded: potent G1 arrest and cell-line dependent apoptosis

Cc1[nH]c2ccccc2c1CCNCc1ccc(/C=C/C(=O)NO)cc1 [HDAI, reference compound]
CELL CYCLE AVG G1 (Mel-P3-Pre [1]; B-Raf 0 uM, HDAI 30 nM): 70
CELL CYCLE AVG G2/M (Mel-P3-Pre [1]; B-Raf 0 uM, HDAI 30 nM): 21
CELL CYCLE AVG S (Mel-P3-Pre [1]; B-Raf 0 uM, HDAI 30 nM): 9
sub-G1 % (Mel-P3-Pre [1]; B-Raf 0 uM, HDAI 30 nM): 17%
CELL CYCLE AVG G1 (Mel-P3-Post [2]; B-Raf 0 uM, HDAI 30 nM): 69
CELL CYCLE AVG G2/M (Mel-P3-Post [2]; B-Raf 0 uM, HDAI 30 nM): 22
CELL CYCLE AVG S (Mel-P3-Post [2]; B-Raf 0 uM, HDAI 30 nM): 9
sub-G1 % (Mel-P3-Post [2]; B-Raf 0 uM, HDAI 30 nM): 15%
z-VAD-fmk positive (Mel-P3-Post [3]; B-Raf 0 uM, HDAI 30 nM): 23
Annexin Staining per quadrant. Lower Left* (“healthy” cells) (Mel-P3-Pre [4]; B-Raf 0 uM, HDAI 30 nM): 85
Annexin Staining per quadrant. Lower Right (Mel-P3-Pre [4]; B-Raf 0 uM, HDAI 30 nM): 8
Annexin Staining per quadrant. Upper Left (Mel-P3-Pre [4]; B-Raf 0 uM, HDAI 30 nM): 1
Annexin Staining per quadrant. Upper Right (Mel-P3-Pre [4]; B-Raf 0 uM, HDAI 30 nM): 6
Annexin Staining per quadrant. Lower Left* (“healthy” cells) (Mel-P3-Post [5]; B-Raf 0 uM, HDAI 30 nM): 83
Annexin Staining per quadrant. Lower Right (Mel-P3-Post [5]; B-Raf 0 uM, HDAI 30 nM): 9
Annexin Staining per quadrant. Upper Left (Mel-P3-Post [5]; B-Raf 0 uM, HDAI 30 nM): 0
Annexin Staining per quadrant. Upper Right (Mel-P3-Post [5]; B-Raf 0 uM, HDAI 30 nM): 8
sub-G1 % (Mel-P4-Post; B-Raf 0 uM, HDAI 30 nM): 24%
sub-G1 % (Mel-P1-Pre; B-Raf 0 uM, HDAI 30 nM): 21%
sub-G1 % (Mel-P1-Post; B-Raf 0 uM, HDAI 30 nM): 14%
sub-G1 % (Mel-P4-Pre; B-Raf 0 uM, HDAI 30 nM): 40%
Depolarised mitochondria (Mel-P3-Post [6]; B-Raf 0 uM, HDAI 30, 48 hours): 86
cell death of melanocytes (in words) (Melanocytes (NHEM)): did not die
CELL CYCLE AVG G1 (Melanocytes (NHEM); B-Raf 0 uM, HDAI 30 nM): 88
CELL CYCLE AVG G2/M (Melanocytes (NHEM); B-Raf 0 uM, HDAI 30 nM): 7
CELL CYCLE AVG S (Melanocytes (NHEM); B-Raf 0 uM, HDAI 30 nM): 5
sub-G1 % (Melanocytes (NHEM); B-Raf 0 uM, HDAI 30 nM): 1%
